Data on eleven molecules can be found in patent US20130309184A1, “1,3-DIOXAN-5-ONE COMPOUNDS” (MERCK PATENT GMBH, priority 2011, published 2013).

Where only a bound is given, the exact number is not on record here.

Common to all, as to format: physicochemical
The nature of data set [1]: Solubility determination in phenethyl benzoate (X-Tend 226). The method, then: The solubility determination was carried out in phenethyl benzoate (X-Tend 226): […]
Data set [2] can be described thus: Absorption strength (absorption spectrum in ethanol). Set-up: λmax: unit not given here. The following applies: for λmax: absorption maximum, dilute solution in ethanol; for E1% value: extinction at the absorption maximum extrapolated to 1 g/100 ml; for E1% value / Half-value width: ethanol; for Half-value width: half-value width of the absorption band. The protocol: The measure used for the absorption strength is the so-called E1% value, and the half-value width of the absorption band in relation to the absorption maximum λmax indicated. The E1% value indicates the extinction at the absorption maximum extrapolated to a concentration of 1 g/100 ml. To this end, an absorption spectrum of the substance in ethanol is recorded in dilute solution. The values are compared with the reference spectra of curcumin and beta-carotene.

Data set [3] can be described thus: Thermal stability by thermogravimetry. The following applies: for Temperature at which 98% of the weight were still present: TGA, RT to 800° C., heating rate 10K/min; for thermal stabilities: verbal assessment, high-temperature processing possible without decomposition. The protocol:
The thermal stability is determined with the aid of the thermogravimetry method (instrument TGA Q5000 V3.10 Build 258, temperature range RT to 800° C., heating rate 10K/min).

Data set [4] can be described thus: Fluorescence measurements. Particulars: in ethanol; measurement concentration 0.00436 mg/ml (Example 4), 0.00048 mg/ml (Example 8), 0.00045 mg/ml (Example 17). The method, then:
The substance concentrations in ethanol indicated in the table are measured using an Aminco Bowman 2 fluorescence spectrometer (cell thickness 1 cm; excitation 220-600 nm; emission 220-800 nm; spectral gap width (excitation) 4 nm, (emission) 8 nm; recording speed 10 nm/min; step width (excitation) 5 nm, (emission) 4 nm.

Turning to `CC1=C(/C=C/C(C)=C/C=C/C(C)=C/C=C/C=C(C)/C=C/C=C(C)/C=C/C2=C(C)CCCC2(C)C)C(C)(C)CCC1` [Beta-carotene, beta-carotene, reference compound], the “Solubility in X-Tend 226” value in data set [1] worked out at 0.2%. In data set [2], the λmax was 453, the E1% value was 408 and the Half-value width is 88 nm. The “Temperature at which 98% of the weight were still present” value in data set [3] came to 84° ° C.
On the same counts, the results for `COc1cc(/C=C/C(=O)CC(=O)/C=C/c2ccc(O)c(OC)c2)ccc1O` [Curcumin, curcumin, reference compound] are 0.4%, 426, 1507, 78 nm and 223° ° C.
As for `CCOC1(C)O/C(=C\c2ccc(OC)cc2)C(=O)/C(=C/c2ccc(OC)cc2)O1` (stereo not shown) [Example 1, (4Z,6Z)-2-ethoxy-4,6-bis[(4-methoxyphenyl)methylene]-2-methyl-1,3-dioxan-5-one], the “Solubility in X-Tend 226” value in data set [1] is given as 2.8%. In addition, in data set [2], the λmax was found to be 402, the E1% value was 873 and the Half-value width is reported as 84 nm.
On to `CCOC1(C)O/C(=C\c2ccc(OC)c(OC)c2)C(=O)/C(=C/c2ccc(OC)c(OC)c2)O1` (stereo not shown) [Example 2], for which, in data set [1], the “Solubility in X-Tend 226” value was 1.2%. For the same molecule, in data set [2], the λmax was determined as 412, the E1% value was 617 and the Half-value width turned out to be 85 nm.
On the same counts, the results for `CCOC1(C)O/C(=C\c2ccc(OC)cc2OC)C(=O)/C(=C/c2ccc(OC)cc2OC)O1` (stereo not shown) [Example 3] are 1.0%, 419, 688 and 93 nm.
On to `CCOC1(C)O/C(=C\c2cc(OC)c(OC)cc2OC)C(=O)/C(=C/c2cc(OC)c(OC)cc2OC)O1` (stereo not shown) [Example 4], for which the “Solubility in X-Tend 226” value in data set [1] is on record as less than 0.1%. In data set [4], this molecule had an Emission of 596 nm and an Excitation of 440 nm. Further, in data set [2], the λmax is reported as 444, the E1% value was 304 and the Half-value width is reported as 92 nm. In data set [3], the “Temperature at which 98% of the weight were still present” value worked out at 256° ° C and the thermal stabilities entry is given as “excellent”.
Take `CCOC1(C)O/C(=C\c2cc(OC)c(OC)c(OC)c2)C(=O)/C(=C/c2cc(OC)c(OC)c(OC)c2)O1` (stereo not shown) [Example 5]: in data set [1], the “Solubility in X-Tend 226” value was determined as 1.1%. Also, in data set [2], the λmax is 394, the E1% value is listed as 647 and the Half-value width is on record as 85 nm.
On the same counts, the results for `CCCCCCCCOc1ccc(/C=C2\OC(C)(OCC)O/C(=C\c3ccc(OCCCCCCCC)cc3)C2=O)cc1` (stereo not shown) [Example 6, (4Z,6Z)-4,6-bis[(4-octyloxyphenyl)methylene]-2-ethoxy-2-methyl-1,3-dioxan-5-one] are 1.0%, 404, 557 and 87 nm.
On the same counts, the results for `CCOC1(C)O/C(=C\c2ccc(Oc3ccccc3)cc2)C(=O)/C(=C/c2ccc(Oc3ccccc3)cc2)O1` (stereo not shown) [Example 7, (4Z,6Z)-4,6-bis[(4-phenoxyyphenyl)methylene]-2-ethoxy-2-methyl-1,3-dioxan-5-one] are 2.2%, 389, 675 and 84 nm.
Regarding `CCCCN(CCCC)c1ccc(/C=C2\OC(C)(OCC)O/C(=C\c3ccc(N(CCCC)CCCC)cc3)C2=O)cc1` (stereo not shown) [Example 8, (4Z,6Z)-4,6-bis[[(4-dibutylamino)phenyl]methylene]-2-ethoxy-2-methyl-1,3-dioxan-5-one], the “Solubility in X-Tend 226” value in data set [1] is 2.8%. In data set [4], this molecule yielded an Emission of 640 nm and an Excitation of 485 nm. For the same molecule, in data set [2], the λmax stood at 486, the E1% value is given as 953 and the Half-value width came out at 105 nm. In data set [3], the “Temperature at which 98% of the weight were still present” value was 274° ° C and the thermal stabilities entry is recorded as “excellent”.
On to `CCOC1(C)O/C(=C\c2ccc(N(C)C)cc2OC)C(=O)/C(=C/c2ccc(N(C)C)cc2OC)O1` (stereo not shown) [Example 17, 2-ethoxy-2,6-bis-[1-(4-dimethylamino-2-methoxyphenyl)meth-(Z)ylidene]-2-methyl-1,3-dioxan-5-one], for which, in data set [4], the Emission was determined as 632 nm and the Excitation is 490 nm.
